# Experimental data published in patent US20120005765A1, “ANIMAL MODEL FOR PARKINSON'S DISEASE” (Saint Louis University, priority 2010, published 2012).
# Entries after “also recorded” stand apart in the source; their conditions may differ.
# Columns and labels:
# [1] = system: dopaminergic neurons in the substantia nigra; test: Tyrosine hydroxylase immunohistochemistry and densitometry after DOPAL injection into substantia nigra; format: in vivo, rat
# Description: Immunohistochemistry. Eighteen hours (two rats) or 5 days following the surgery the rats were anesthetized and perfused through the left ventricle of the heart with 0.1 M phosphate buffer containing 4% paraformaldehyde. The brains were removed, post-fixed for at least 4 h, sunk in 25% sucrose, and sectioned frozen at 50 pm with a sliding microtome. Adjacent series of sections were subjected to a conventional immunoperoxidase protocol using antibodies against tyrosine hydroxylase (TH; Sigma, monoclonal, made in […], used at a dilution of 1:6000), neuronal nuclear antigen (NeuN, Chemicon, Temecula, Calif., USA, made in rabbit, used at 1:20,000) or glial fibrillary acidic protein (GFAP, made in rabbit, used at 1:5000). Briefly, the sections were immersed overnight in 0.1 M Sorenson's phosphate buffer (SPB, pH 7.4) containing 0.2% Triton X-100 (SPB/Triton) and primary antibody with agitation. The following morning they were thrice rinsed in SPB/Triton and immersed for 1 h in SPB/Triton containing biotinylated secondary antibodies against the host species of the primary antibodies, used at a dilution of 1:200. The sections were again thrice rinsed in SPB/Triton and then immersed in SPB/Triton containing ABC reagents (Vector, Burlingame, Calif., USA) used at a dilution of 1:200. After further rinsing in SPB the sections were reacted with 3,3-diaminobenzidine (DAB) and hydrogen peroxide to produce an insoluble brown reaction product that was further intensified with osmium and thiocarbohydrazide as has been described. All immersions and rinses were done at room temperature. In addition, a series of sections from many of the brains was mounted and processed for Nissl staining using a standard cresyl violet staining procedure. […]
# Determination of DOPAL-induced Parkinson's disease-like behavior Injections of DOPAL or ALDH1A1 antisense oligo into rat SN. […] After 5-7 weeks, rats were injected with apomorphine (0.4 mg/kg, subcutaneously) and rotational asymmetry determined in each group just prior to sacrifice. […]
# [2] = system: rats; test: Rotational asymmetry after apomorphine; format: in vivo, rat; conditions: apomorphine 0.4 mg/kg, n=6, p, 0.05 vs control rats
# Description: Determination of DOPAL-induced Parkinson's disease-like behavior Injections of DOPAL or ALDH1A1 antisense oligo into rat SN. To determine if increased levels of DOPAL in SN produces a behavioral model of PD, 3 groups of rats were tested: unilateral SN injection of 4 μg DOPAL in 6 rats; unilateral SN injection of 0.56 μg antisense oligonucleotide (oligo) targeted to aldehyde dehydrogenase (ALDH1A1) mRNA, the DOPAL catabolic enzyme in 3 rats; 5 non-injected rats. After 5-7 weeks, rats were injected with apomorphine (0.4 mg/kg, subcutaneously) and rotational asymmetry determined in each group just prior to sacrifice. After the brains were fixed and sectioned, the SN, and forebrain were stained immunohistochemically for tyrosine hydroxylase immunoreactivity (THir). See Section 3.
# Determination of rotational asymmetry. Rats first were injected subcutaneously with the dopamine agonist apomorphine (0.4 mg/kg) dissolved in 0.1 ascorbate saline solution. After waiting 5 min in their home cage, they were placed in a hemispheric rotation bowl 40 cm wide and 20 cm deep. Rotational behavior was then determined for 30 min and the number of ipsilateral and contralateral turns quantified by observation.
# Rotational asymmetry was assessed to quantify the effect of unilateral depletions of striatal dopamine from disruptions of nigrostriatal circuitry. The rotational asymmetry behavior of rats (n=6) changed dramatically after injections with DOPAL (FIG. 5).
# Behavioral asymmetry is considered the standard behavioral test for rodent models of Parkinson's disease. The column on the right is a summary of all the behaviors recorded in the rotational asymmetry test for all the rats ([…]).
# [3] = system: PC12 cells; test: DOPAL toxicity in vitro, viable PC12 cell count (trypan blue); conditions: for PC 12 cells/well × 103: rat
# Description: Determination of DOPAL toxicity in vitro Toxicity experiments were essentially as described previously. PC12 cultures were initially expanded in T-75 flasks with 20 ml Dulbecco's Modified Eagle's Medium supplemented with 4.5 g/l glucose, 4 mM L-glutamine, 5% fetal calf serum, 10% horse serum, 1000 units/l penicillin, and 100 mg/l streptomycin. Cells were transferred to six well culture plates with 2 ml media and grown to 1.5×10^5 cells/well, treated with 50 ng/ml nerve growth factor (NGF), and maintained in NGF-containing media for 7 d prior to experimentation. The medium was changed every 2-3 d. […] During the experiments, the medium was replaced once a day. Cells were detached with buffered saline containing EDT A, centrifuged at 200×g and resuspended in trypan blue for counting of viable cells. […] DOPAL and other compounds were added as described in the description of the figure and examples. Data was analyzed by ANOVA.
# DOPAL, as well as other physiologically metabolites and adducts, were added to PC12 cells in culture at concentrations that were physiologically relevant.
structure (smiles),measurement,setting,value
"O=CCc1ccc(O)c(O)c1 [DOPAL, 3,4-dihydroxyphenylacetaldehyde]",immunoreactivity of TH in the SN ipsilateral to injection,[1]; vs contralateral non-injected side,decrease
same,reduction in TH immunoreactivity in the striatum ipsilateral to injection,"[1]; vs contralateral non-injected side, background subtracted",28%
same,"loss of TH immunoreactivity by spot density, ventrolateral striatum ipsilateral to injection",[1]; vs contralateral side,80%
same,rotational asymmetry after unilateral DOPAL injection into SN,[2],significantly preferred turning towards the side of the injection; also recorded: turning significantly towards the side of DOPAL injections
same,toxic in vitro at physiological levels,[3],toxic
same,PC 12 cells/well × 103,[3]; 6.6 μM,105 ± 12b cells/well × 103
same,PC 12 cells/well × 103,[3]; 30 μM,107 ± 10b cells/well × 103
same,PC 12 cells/well × 103,[3]; 66 μM,100 ± 5a cells/well × 103
